The subject of the first assay is pERK1/2(THR202/TYR204) level in AsPC-1 cell line. Description: KRAS G12D pERK assay. The assay is classed as cell-based. To be noted: Homo sapiens, ASPC1, 2 h, AsPC-1 cells, 2 h compound treatment, HTRF. As to the method:
(§1) AsPC-1 cell line was used in this study. Cells were maintained in RPMI-1640 supplemented with 10% fetal bovine serum (Thermo Fisher), 50 units/mL penicillin and streptomycin (Thermo Fisher) and kept at 37° C. in a humidified atmosphere of 5% CO2 in air. Cells were reinstated from frozen stocks that were laid down within 30 passages from the original cells purchased. 30000 cells per well were seeded into a 96-well plate and incubated overnight. Cells were treated with a 10-point dilution series. The final compound concentration is from 0 to 10 μM. After 2 h compound treatment, cells were lysed, and the pERK1/2(THR202/TYR204) level in the cell lysates was detected by HTRF kit (Cisbio). In brief, a total of 16 μL of cell lysate from each well of a 96-well plate was transferred to a 384-well white assay plate. Lysate from each well was incubated with 2 μL of Eu3+-cryptate (donor) labeled anti-phospho-ERK1/2 and 2 μL of D2 (acceptor) labeled anti-phospho-ERK1/2 antibodies (Cisbio) overnight in dark at room temperature. When donor and acceptor are in close proximity, excitation of the donor with laser triggers a Fluorescence Resonance Energy Transfer (FRET) towards the acceptor, which in turn fluoresces at 655 nm wavelength. FRET signals were measured using a PHERAstar FSX reader (BMG Labtech). IC50 determination was performed by fitting the curve of percent inhibition versus the log of the inhibitor concentration using Dotmatics.
Turning to `Nc1cc(Cl)c(C(F)(F)F)c(-c2nc3c4c(nc(OCC56COC(C(F)(F)F)(C5)C6)nc4c2F)N2C[C@H]4CC[C@H](N4)[C@H]2CCO3)c1` [Example 53, 3-chloro-5-((6aR,7S,10R)-1-fluoro-13-((1-(trifluoromethyl)-2-oxabicyclo[2.1.1]hexan-4-yl)methoxy)-5,6,6a,7,8,9,10,11-octahydro-4-oxa-3,11a,12,14,15-pentaaza-7,10-methanocyclohepta[4,5]cyclo-octa[1,2,3-de]naphthalen-2-yl)-4-(trifluoromethyl)aniline], the midpoint of inhibition, the IC50, lay at 211 nM.

Compound `COC1(COc2nc3c4c(nc(-c5cc(N)cc(Cl)c5C(F)(F)F)c(F)c4n2)OCC[C@@H]2[C@@H]4CC[C@H](CN32)N4)COC1` [Example 61, 3-chloro-5-((6aR,7S,10R)-1-fluoro-13-((3-methoxyoxetan-3-yl)methoxy)-5,6,6a,7,8,9,10,11-octahydro-4-oxa-3,11a,12,14,15-pentaaza-7,10-methanocyclohepta[4,5]cyclo-octa[1,2,3-de]naphthalen-2-yl)-4-(trifluoromethyl)aniline] showed an IC50 of 332 nM. Compared with the last compound, the IC50 is about 1.6-fold higher. `COCC1(COc2nc3c4c(nc(-c5cc(N)cc(Cl)c5C(F)(F)F)c(F)c4n2)OCC[C@@H]2[C@@H]4CC[C@H](CN32)N4)COC1` [Example 62, 3-chloro-5-((6aR,7S,10R)-1-fluoro-13-((3-(methoxymethyl)oxetan-3-yl)methoxy)-5,6,6a,7,8,9,10,11-octahydro-4-oxa-3,11a,12,14,15-pentaaza-7,10-methanocyclohepta[4,5]cyclo-octa[1,2,3-de]naphthalen-2-yl)-4-(trifluoromethyl)aniline] displayed a half-maximal inhibitory concentration (IC50) of 346 nM.

Turning to `Nc1cc(Cl)c(C(F)(F)F)c(-c2nc3c4c(nc(OCC5(C(F)F)CCOC5)nc4c2F)N2C[C@H]4CC[C@H](N4)[C@H]2CCO3)c1` (stereo partly drawn) [Example 63, 3-chloro-5-((6aR,7S,10R)-13-((3-(difluoromethyl)tetrahydrofuran-3-yl)methoxy)-1-fluoro-5,6,6a,7,8,9,10,11-octahydro-4-oxa-3,11a,12,14,15-pentaaza-7,10-methanocyclohepta[4,5]cyclo-octa[1,2,3-de]naphthalen-2-yl)-4-(trifluoromethyl)aniline], half-maximal inhibition (IC50) was put at 151 nM. `CC1(COc2nc3c4c(nc(-c5cc(N)cc(Cl)c5C(F)(F)F)c(F)c4n2)OCC[C@@H]2[C@@H]4CC[C@H](CN32)N4)COC1` [Example 66, 3-chloro-5-((6aR,7S,10R)-1-fluoro-13-((3-methyloxetan-3-yl)methoxy)-5,6,6a,7,8,9,10,11-octahydro-4-oxa-3,11a,12,14,15-pentaaza-7,10-methanocyclohepta[4,5]cyclo-octa[1,2,3-de]naphthalen-2-yl)-4-(trifluoromethyl)aniline] displayed a half-inhibitory concentration (IC50) of 145 nM. On the same count and under the same terms, as for `Nc1cc(Cl)c(C(F)(F)F)c(-c2nc3c4c(nc(OCC56COCC(C5)C6)nc4c2F)N2C[C@H]4CC[C@H](N4)[C@H]2CCO3)c1` [Example 67, 3-((6aR,7S,10R)-13-((3-oxabicyclo[3.1.1]heptan-1-yl)methoxy)-1-fluoro-5,6,6a,7,8,9,10,11-octahydro-4-oxa-3,11a,12,14,15-pentaaza-7,10-methanocyclohepta[4,5]cyclo-octa[1,2,3-de]naphthalen-2-yl)-5-chloro-4-(trifluoromethyl)aniline], the figure is 169 nM; as for `CCc1cc(N)cc(-c2nc3c4c(nc(OCC56COC(C5)C6)nc4c2F)N2C[C@H]4CC[C@H](N4)[C@H]2CCO3)c1C(F)(F)F` [Example 68, 3-((6aR,7S,10R)-13-((2-oxabicyclo[2.1.1]hexan-4-yl)methoxy)-1-fluoro-5,6,6a,7,8,9,10,11-octahydro-4-oxa-3,11a,12,14,15-pentaaza-7,10-methanocyclohepta[4,5]cycloocta[1,2,3-de]naphthalen-2-yl)-5-ethyl-4-(trifluoromethyl)aniline], 548 nM.

The test system of the next assay is pERK1/2(THR202/TYR204) level in SW620 cell line. Description: KRAS G12V pERK assay. It counts as cell-based. The note with it: Homo sapiens, SW-620; SW620 cells, 2 hrs compound treatment, HTRF. As to the method:
as §1, with “SW620 cell” for “AsPC-1 cell”, “in RPMI 1640” for “in RPMI-1640”, “purchased. 40000” for “purchased. 30000”, “2 hrs” for “2 h”
On the technique in general: In TR-FRET formats the signal depends on donor and acceptor labels being close together.
Regarding `N#Cc1c(N)sc2c(F)ccc(-c3c(Cl)c4c5c(nc(OC[C@@]67CCCN6C[C@H](F)C7)nc5c3F)N3CCOC[C@H]3CO4)c12` (single isomer, unassigned) [Example 14-Isomer 2], the 50% inhibitory concentration (IC50) is 33 nM. The compound `N#Cc1c(N)sc2c(F)ccc(-c3cc4c5c(nc(OC[C@@]67CCCN6C[C@H](F)C7)nc5c3F)N3CCOC[C@H]3CO4)c12` [Example 1, 2-amino-7-fluoro-4-((S)-4-fluoro-2-(((2R,7aS)-2-fluorotetrahydro-1H-pyrrolizin-7a(5H)-yl)methoxy)-8a,9,11,12-tetrahydro-8H-[1,4]oxazino[3′,4′:3,4][1,4]oxazepino[5,6,7-de]quinazolin-5-yl)benzo[b]thiophene-3-carbonitrile] registered an IC50 of 161 nM. As for `C#Cc1c(F)ccc2cc(O)cc(-c3cc4c5c(nc(OC[C@@]67CCCN6C[C@H](F)C7)nc5c3F)N3CCOC[C@H]3CO4)c12` [Example 2, 5-ethynyl-6-fluoro-4-((S)-4-fluoro-2-(((2R,7aS)-2-fluorotetrahydro-1H-pyrrolizin-7a(5H)-yl)methoxy)-8a,9,11,12-tetrahydro-8H-[1,4]oxazino[3′,4′:3,4][1,4]oxazepino[5,6,7-de]quinazolin-5-yl)naphthalen-2-ol], the 50% inhibitory concentration (IC50) was determined as 178 nM.

For `Nc1cc(Cl)c(C(F)(F)F)c(-c2nc3c4c(nc(OC[C@@]56CCCN5C[C@H](F)C6)nc4c2F)N2CCOC[C@H]2CO3)c1` [Example 3, 3-chloro-5-((S)-1-fluoro-11-(((2R,7aS)-2-fluorotetrahydro-1H-pyrrolizin-7a(5H)-yl)methoxy)-5a,6,8,9-tetrahydro-5H-4,7-dioxa-3,9a,10,12-tetraazabenzo[4,5]cyclohepta[1,2,3-de]naphthalen-2-yl)-4-(trifluoromethyl)aniline], the half-maximal inhibitory concentration (IC50) is 133 nM.

Turning to `CCc1c(F)ccc2cc(O)cc(-c3nc4c5c(nc(OC[C@@]67CCCN6C[C@H](F)C7)nc5c3F)N3CCOC[C@H]3CO4)c12` [Example 5, 5-ethyl-6-fluoro-4-((S)-1-fluoro-11-(((2R,7aS)-2-fluorotetrahydro-1H-pyrrolizin-7a(5H)-yl)methoxy)-5a,6,8,9-tetrahydro-5H-4,7-dioxa-3,9a,10,12-tetraazabenzo[4,5]cyclohepta[1,2,3-de]naphthalen-2-yl)naphthalen-2-ol], 22 nM corresponded to half-maximal inhibition (IC50). This IC50 lies about 6-fold lower than the previous one. Same read-out and setting: as for `Oc1cc(Cl)c(C2CC2)c(-c2nc3c4c(nc(OC[C@@]56CCCN5C[C@H](F)C6)nc4c2F)N2CCOC[C@H]2CO3)c1` [Example 6, 3-chloro-4-cyclopropyl-5-((S)-1-fluoro-11-(((2R,7aS)-2-fluorotetrahydro-1H-pyrrolizin-7a(5H)-yl)methoxy)-5a,6,8,9-tetrahydro-5H-4,7-dioxa-3,9a,10,12-tetraazabenzo[4,5]cyclohepta[1,2,3-de]naphthalen-2-yl)phenol], the figure is 118 nM; as for `C#Cc1c(F)ccc2cc(O)cc(-c3nc4c5c(nc(OC[C@@H]6C[C@@H](F)CN6C)nc5c3F)N3CCOC[C@H]3CO4)c12` [Example 7, 5-ethynyl-6-fluoro-4-((S)-1-fluoro-11-(((2S,4R)-4-fluoro-1-methylpyrrolidin-2-yl)methoxy)-5a,6,8,9-tetrahydro-5H-4,7-dioxa-3,9a,10,12-tetraazabenzo[4,5]cyclohepta[1,2,3-de]naphthalen-2-yl)naphthalen-2-ol], 72 nM.

In general, IC50 refers to the concentration that gives 50% inhibition.
